Assay results published in PubChem BioAssay (NCI).
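Abbreviation: GI50, concentration required for 50% inhibition of growth. Definition used: TGI = concentration required for complete inhibition of growth.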

Key:
Assay in all cases: NCI anticancer screen, dose series, 384-well format
UACC-257 melanoma = tested on: UACC-257 melanoma
NCI-H322M lung = tested on: NCI-H322M lung
SF-539 CNS = tested on: SF-539 CNS
U251 glioblastoma = tested on: U251 glioblastoma
HCT-15 colon = tested on: HCT-15 colon
SK-MEL-5 melanoma = tested on: SK-MEL-5 melanoma
OVCAR-3 ovarian = tested on: OVCAR-3 ovarian
SNB-19 CNS = tested on: SNB-19 CNS
ACHN renal = tested on: ACHN renal
HCC-2998 colon = tested on: HCC-2998 colon
MDA-MB-468 breast = tested on: MDA-MB-468 breast
PC-3 prostate = tested on: PC-3 prostate
A549 NSCLC = tested on: A549 NSCLC
TK-10 renal = tested on: TK-10 renal
COLO 205 colon = tested on: COLO 205 colon
NCI-H522 lung = tested on: NCI-H522 lung
MALME-3M melanoma = tested on: MALME-3M melanoma
SK-MEL-28 melanoma = tested on: SK-MEL-28 melanoma
HS 578T breast = tested on: HS 578T breast
SF-295 CNS = tested on: SF-295 CNS
SW-620 colon = tested on: SW-620 colon
CAKI-1 renal = tested on: CAKI-1 renal
SNB-75 CNS = tested on: SNB-75 CNS
RXF 393 renal = tested on: RXF 393 renal
UO-31 renal = tested on: UO-31 renal
NCI/ADR-RES ovarian = tested on: NCI/ADR-RES ovarian
DU-145 prostate = tested on: DU-145 prostate
LOX IMVI melanoma = tested on: LOX IMVI melanoma
HL-60(TB) leukemia = tested on: HL-60(TB) leukemia
SK-MEL-2 melanoma = tested on: SK-MEL-2 melanoma
SN12C renal = tested on: SN12C renal
SF-268 CNS = tested on: SF-268 CNS
KM12 colon = tested on: KM12 colon
UACC-62 melanoma = tested on: UACC-62 melanoma
HT29 colon = tested on: HT29 colon
EKVX NSCLC = tested on: EKVX NSCLC
HOP-62 NSCLC = tested on: HOP-62 NSCLC
NCI-H460 NSCLC = tested on: NCI-H460 NSCLC
MDA-MB-435 melanoma = tested on: MDA-MB-435 melanoma
786-0 renal = tested on: 786-0 renal
SK-OV-3 ovarian = tested on: SK-OV-3 ovarian
BT-549 breast = tested on: BT-549 breast
T-47D breast = tested on: T-47D breast
MCF7 breast = tested on: MCF7 breast
MOLT-4 leukemia = tested on: MOLT-4 leukemia
OVCAR-4 ovarian = tested on: OVCAR-4 ovarian
A498 renal = tested on: A498 renal

COC(=O)c1ccc([C@H]2c3[nH]c4ccccc4c3C[C@H](C(=O)OC)N2C(=O)CCl)cc1
GI50 (UACC-257 melanoma): 0.0868 µM | TGI (UACC-257 melanoma): 0.336 µM | GI50 (NCI-H322M lung): 1.14 µM | TGI (NCI-H322M lung): 2.42 µM | GI50 (SF-539 CNS): 0.0339 µM | TGI (SF-539 CNS): 0.114 µM | GI50 (U251 glioblastoma): 0.119 µM | TGI (U251 glioblastoma): 0.399 µM | GI50 (HCT-15 colon): 0.157 µM | TGI (HCT-15 colon): 0.913 µM | GI50 (SK-MEL-5 melanoma): 0.479 µM | TGI (SK-MEL-5 melanoma): 1.76 µM | GI50 (OVCAR-3 ovarian): 0.0143 µM | TGI (OVCAR-3 ovarian): 0.0288 µM | GI50 (SNB-19 CNS): 1.3 µM | TGI (SNB-19 CNS): 2.59 µM | GI50 (ACHN renal): < 0.01 µM | TGI (ACHN renal): < 0.01 µM | GI50 (HCC-2998 colon): 0.0303 µM | TGI (HCC-2998 colon): 0.177 µM | GI50 (MDA-MB-468 breast): < 0.01 µM | TGI (MDA-MB-468 breast): 0.0195 µM | GI50 (PC-3 prostate): 0.0344 µM | TGI (PC-3 prostate): 0.14 µM | GI50 (A549 NSCLC): 0.119 µM | TGI (A549 NSCLC): 0.339 µM | GI50 (TK-10 renal): 0.0158 µM | TGI (TK-10 renal): 0.0336 µM | GI50 (COLO 205 colon): 0.238 µM | TGI (COLO 205 colon): 1.15 µM | GI50 (NCI-H522 lung): < 0.01 µM | TGI (NCI-H522 lung): < 0.01 µM | GI50 (MALME-3M melanoma): 0.0148 µM | TGI (MALME-3M melanoma): 0.029 µM | GI50 (SK-MEL-28 melanoma): 1.45 µM | TGI (SK-MEL-28 melanoma): 2.83 µM | GI50 (HS 578T breast): 0.131 µM | TGI (HS 578T breast): 0.311 µM | GI50 (SF-295 CNS): 0.103 µM | TGI (SF-295 CNS): 0.221 µM | GI50 (SW-620 colon): 0.199 µM | TGI (SW-620 colon): 0.504 µM | GI50 (CAKI-1 renal): < 0.01 µM | TGI (CAKI-1 renal): < 0.01 µM | GI50 (SNB-75 CNS): 0.0185 µM | TGI (SNB-75 CNS): 0.0414 µM | GI50 (RXF 393 renal): < 0.01 µM | TGI (RXF 393 renal): 0.0152 µM | GI50 (UO-31 renal): < 0.01 µM | TGI (UO-31 renal): < 0.01 µM | GI50 (NCI/ADR-RES ovarian): 0.0251 µM | TGI (NCI/ADR-RES ovarian): 0.102 µM | GI50 (DU-145 prostate): 0.336 µM | TGI (DU-145 prostate): 1.64 µM | GI50 (LOX IMVI melanoma): < 0.01 µM | TGI (LOX IMVI melanoma): < 0.01 µM | GI50 (HL-60(TB) leukemia): < 0.01 µM | TGI (HL-60(TB) leukemia): 0.0102 µM | GI50 (SK-MEL-2 melanoma): 0.0517 µM | TGI (SK-MEL-2 melanoma): 0.185 µM | GI50 (SN12C renal): 0.466 µM | TGI (SN12C renal): 1.83 µM | GI50 (SF-268 CNS): 0.0195 µM | TGI (SF-268 CNS): 0.0423 µM | GI50 (KM12 colon): 0.0183 µM | TGI (KM12 colon): 0.0378 µM | GI50 (UACC-62 melanoma): 0.0193 µM | TGI (UACC-62 melanoma): 0.0416 µM | GI50 (HT29 colon): 0.227 µM | TGI (HT29 colon): 0.707 µM | GI50 (EKVX NSCLC): < 0.01 µM | TGI (EKVX NSCLC): 0.0224 µM | GI50 (HOP-62 NSCLC): 0.0107 µM | TGI (HOP-62 NSCLC): 0.0355 µM | GI50 (NCI-H460 NSCLC): 0.574 µM | TGI (NCI-H460 NSCLC): 1.94 µM | GI50 (MDA-MB-435 melanoma): 0.346 µM | TGI (MDA-MB-435 melanoma): 1.57 µM | GI50 (786-0 renal): 0.0104 µM | TGI (786-0 renal): 0.025 µM | GI50 (SK-OV-3 ovarian): 0.158 µM | TGI (SK-OV-3 ovarian): 0.299 µM | GI50 (BT-549 breast): 0.12 µM | TGI (BT-549 breast): 0.246 µM | GI50 (T-47D breast): 0.0582 µM | TGI (T-47D breast): 0.764 µM | GI50 (MCF7 breast): 0.553 µM | TGI (MCF7 breast): 1.83 µM | GI50 (MOLT-4 leukemia): 0.0155 µM | TGI (MOLT-4 leukemia): 0.0294 µM | GI50 (OVCAR-4 ovarian): < 0.01 µM | TGI (OVCAR-4 ovarian): < 0.01 µM | GI50 (A498 renal): 0.0205 µM | TGI (A498 renal): 0.0438 µM
